According to paper PMC6071539 (Theranostics, 2018):

Legend:
[1] = Drug loading and encapsulation efficiency by RP-HPLC; assay type: physicochemical; conditions: PEG5k-PLA8k NPs, matrices/SN38 feed weight ratio 19:1, n = 3
Hep 3B = experiment: In vitro cytotoxicity, MTT assay, Hep 3B; assay type: cell-based; conditions: Homo sapiens, Hep3B, 72 h, read-out: IC50 ± SD
BEL-7402 = experiment: In vitro cytotoxicity, MTT assay, BEL-7402; assay type: cell-based; conditions: Homo sapiens, Bel-7402, 72 h, read-out: IC50 ± SD
advanced HCC = conditions: patients with advanced HCC; cited from earlier work
human HCC PDX tumors = experiment: Antitumor activity in human HCC PDX tumor model; assay type: in vivo, Balb/c nude mice; conditions: i.v. x3
[2] = clinical; cited from earlier work
carboxylesterases = conditions: in the body, background statement; cited from earlier work
Hep 3B cells = experiment: Cell proliferation by EdU incorporation; assay type: cell-based, human; conditions: 2 μM SN38 equivalent, 24 h
[3] = Bloody diarrhea and intestinal damage study; assay type: in vivo, Balb/c mice
[4] = Pharmacokinetics after single i.v. injection; conditions: Sprague-Dawley, rat, in vivo, iv, 12 mg/kg

SMILES	EE (encapsulation efficiency) [1] [%]	IC50 (Hep 3B) [µM]	IC50 (BEL-7402) [µM]	Extension of median overall survival compared with a placebo (advanced HCC) [months]	Antitumor efficacy (human HCC PDX tumors)	Incidence of grade 3 or 4 diarrhea [2] [%]	Enzymatic conversion to SN38, share of dosed CPT-11 (carboxylesterases)	Effect on proliferation (EdU incorporation) (Hep 3B cells)	Large intestine histology (H&E) ([3]; day 9, healthy Balb/c mice)	Onset of bloody diarrhea ([3]; healthy Balb/c mice, CPT-11 22.5 mg/kg i.v. x3) [days]	AUC(0-inf) [4] [ng·h/mL]	AUC(0-t) [4] [ng·h/mL]	Cmax [4] [ng/mL]
CCc1c2c(nc3ccc(O)cc13)-c1cc3c(c(=O)n1C2)COC(=O)[C@]3(O)CC [SN38, 7-ethyl-10-hydroxycamptothecin]	< 5	7.74 ± 1.18	2.76 ± 0.16	–	–	–	–	–	–	–	–	–	–
CNC(=O)c1cc(Oc2ccc(NC(=O)Nc3ccc(Cl)c(C(F)(F)F)c3)cc2)ccn1 [sorafenib]	–	–	–	2.8	–	–	–	–	–	–	–	–	–
CCc1c2c(nc3ccc(OC(=O)N4CCC(N5CCCCC5)CC4)cc13)-c1cc3c(c(=O)n1C2)COC(=O)[C@]3(O)CC [CPT-11, irinotecan]	–	49.3 ± 3.3	42 ± 2.06	–	moderate efficacy	31	less than 8%	negligible effect	destruction of these tissues by eliminating the glands and causing diffuse mucosal damage	2	68900	67600	23800
